Like-named read-outs stand apart in the source and are kept apart here.
Experiments:
human CB2 receptor = biological target: T1, human CB2 receptor (Homo sapiens, UniProt P34972); assay: CB2 radioligand competitive binding assay ([3H]CP 55,940 displacement); settings: for Selectivity CB2: fold difference in selectivity between CB1 and CB2 binding, in the column of the receptor with the higher binding affinity
T1 construct: host or cells: CHO-K1
Procedure: Compounds of the present disclosure were tested for CB1 receptor binding affinity and for CB2 receptor binding affinity. As used herein, “binding affinity” is represented by the IC50 value, which was experimentally determined as described herein. The lower the IC50 value the higher the binding affinity. A compound of the present disclosure may be said to have “binding selectivity” if it has a higher binding affinity for one receptor compared to the other.
The membranes were prepared from CHO-K1 (Chinese hamster ovary) cells stably transfected with the human CB2 receptor (Cat. #ES-111-C; Perkin Elmer, Boston, Mass.). The cells were grown adherently and maintained in Ham's F12 medium containing 10% fetal bovine serum (FBS), penicillin, streptomycin and geneticin (G418) at 37° C. in a humid atmosphere of 5% CO2 following the manufacturer's instructions.
For membrane preparation the cells were washed with PBS and scraped off the plates in cold homogenization buffer (25 mM HEPES (pH 7.4), 2 mM EDTA) containing protease inhibitor cocktail (Sigma Cat. #P8340). The cell suspension was homogenized with a Pro-PK-01200D Polytron Homogenizer (Pro Scientific) and then centrifuged for 30 min at 120,000×g. The supernatant was discarded and the pellet was re-suspended in the homogenization buffer and stored at −80° C. until the time of use.
In this experiment, 3H radiolabeled CP 55,940, i.e. [3H]CP 55,940 (Perkin Elmer, Boston, Mass.), was used as a radioligand for the CB2 receptor to determine the binding affinity of compounds for the CB2 receptor (Scheme 5; above).
The competition binding experiments (single dose and dose-response) were performed by incubating 0.6 nM of [3H]CP55,940 (specific activity 101 Ci/mmol, Perkin Elmer) and different concentrations of compounds disclosed herein with membranes prepared as above from CHO-K1 cells expressing human CB2 receptor (1 μg of protein/well), 50 mM Tris-HCl (pH 7.4), 5 mM MgCl2, 1 mM CaCl2, and 2 mg/mL BSA.
For the single dose experiments, the compound stocks (usually 10 mM in DMSO) were diluted to working stocks in the binding buffer to give the final compound concentrations of 10 μM and 1 μM. For the dose-response experiments the test compounds were sequentially diluted to provide the desired concentration range for the IC50 determination. In each case the compounds were pre-incubated with the membrane for 20 min, before adding the radioligand.
After incubation with the radioligand for 60 min at 37° C., the incubation was terminated by rapid filtration of assay mixture through MultiScreen®HTS+96-well filter plates (Millipore, Cat. #MSFCNXB), pre-soaked for 60 min with 50 mM Tris-HCl (pH 7.4) containing 0.33% polyethylenimine (PEI). The nonspecific binding (NSB) was determined in the presence of 10 μM unlabelled CP55,940. After drying the filter plate at 50° C. for at least 60 min, the filter-bound radioactivity was determined by scintillation spectrometry using the 1450 MicroBeta Plate Counter (Perkin Elmer, Boston, Mass.). From the dose-response experiments, the IC50 values were determined (see Table 1, CB2 IC50).

human CB1 receptor = biological target: T2, human CB1 receptor (Homo sapiens, UniProt P21554); assay: CB1 radioligand competitive binding assay ([3H]CP 55,940 displacement)
T2 construct: host or cells: CHO-K1

[1] = 0.6 nM [3H]CP55,940, membranes of CHO-K1 cells expressing human CB2 receptor, read-out: CB2 IC50
[2] = 0.8 nM [3H]CP 55,940, membranes of CHO-K1 cells expressing human CB1 receptor, read-out: CB1 IC50

T1 sequence (P34972 whole entry): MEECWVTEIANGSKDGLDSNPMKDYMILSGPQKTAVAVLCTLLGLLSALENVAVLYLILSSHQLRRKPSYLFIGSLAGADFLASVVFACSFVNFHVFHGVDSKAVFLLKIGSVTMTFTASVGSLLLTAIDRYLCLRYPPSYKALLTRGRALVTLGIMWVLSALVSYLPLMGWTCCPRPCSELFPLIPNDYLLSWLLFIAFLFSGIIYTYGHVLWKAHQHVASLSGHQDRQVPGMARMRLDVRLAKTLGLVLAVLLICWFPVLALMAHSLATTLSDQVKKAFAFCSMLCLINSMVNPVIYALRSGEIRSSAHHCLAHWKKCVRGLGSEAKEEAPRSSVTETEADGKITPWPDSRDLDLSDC
T2 sequence (P21554 whole entry): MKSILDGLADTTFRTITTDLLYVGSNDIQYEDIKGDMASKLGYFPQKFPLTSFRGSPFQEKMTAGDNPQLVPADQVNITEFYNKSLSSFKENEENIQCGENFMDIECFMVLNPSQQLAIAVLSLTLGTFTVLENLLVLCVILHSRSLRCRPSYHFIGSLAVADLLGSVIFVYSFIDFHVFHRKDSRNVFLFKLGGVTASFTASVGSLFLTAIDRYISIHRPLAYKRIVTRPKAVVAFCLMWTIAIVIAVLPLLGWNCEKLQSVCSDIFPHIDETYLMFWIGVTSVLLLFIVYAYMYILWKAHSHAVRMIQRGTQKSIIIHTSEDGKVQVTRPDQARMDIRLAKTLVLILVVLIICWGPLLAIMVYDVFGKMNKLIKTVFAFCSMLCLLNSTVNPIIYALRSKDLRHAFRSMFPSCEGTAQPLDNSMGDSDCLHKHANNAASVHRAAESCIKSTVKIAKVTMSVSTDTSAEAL

SMILES: CCCCCc1cc(O)c(C/C=C(\C)CCC=C(C)C)c2c1C(=O)OCO2 [Compound 1, 8-(3,7-dimethylocta-2,6-dien-1-yl)-7-hydroxy-5-pentyl-4H-benzo[d][1,3]dioxin-4-one]
- IC50 (human CB2 receptor; [1]): 1000 to 2490 nM
- Selectivity CB2 (human CB2 receptor): 4.07 fold
- IC50 (human CB1 receptor; [2]): > 5000 nM

SMILES: CCCCCc1cc(O)c(C/C=C(\C)CCC=C(C)C)c2c1C(=O)OC(c1ccccc1)O2 (stereo not drawn) [Compound 3, 8-(3,7-dimethylocta-2,6-dien-1-yl)-7-hydroxy-5-pentyl-2-phenyl-4H-benzo[d][1,3]dioxin-4-one]
- IC50 (human CB2 receptor): 1000 to 2490 nM
- Selectivity CB2 (human CB2 receptor): 1.19 fold
- IC50 (human CB1 receptor): 1000 to 2490 nM

SMILES: CCCCCc1cc(O)c(C/C=C(\C)CCC=C(C)C)c2c1C(=O)OC(C)(COC)O2 (stereo not drawn) [Compound 11, 8-(3,7-dimethylocta-2,6-dien-1-yl)-7-hydroxy-2-(methoxymethyl)-2-methyl-5-pentyl-4H-benzo[d][1,3]dioxin-4-one]
- IC50 (human CB2 receptor): < 1000 nM
- Selectivity CB2 (human CB2 receptor): 4.46 fold
- IC50 (human CB1 receptor): 2500 to 4990 nM

SMILES: CCCCCc1cc(O)c(C/C=C(\C)CCC=C(C)C)c2c1C(=O)OC(CC(C)=O)(c1ccccc1)O2 (stereo not drawn) [Compound 12, 8-(3,7-dimethylocta-2,6-dien-1-yl)-7-hydroxy-2-(2-oxopropyl)-5-pentyl-2-phenyl-4H-benzo[d][1,3]dioxin-4-one]
- IC50 (human CB2 receptor): < 1000 nM
- Selectivity CB2 (human CB2 receptor): 4.31 fold
- IC50 (human CB1 receptor): 2500 to 4990 nM

SMILES: CCCCCc1cc(O)c(C/C=C(\C)CCC=C(C)C)c2c1C(=O)OC(CC(C)=O)O2 (stereo not drawn) [Compound 14, 8-(3,7-dimethylocta-2,6-dien-1-yl)-7-hydroxy-2-(2-oxopropyl)-5-pentyl-4H-benzo[d][1,3]dioxin-4-one]
- IC50 (human CB2 receptor; [1]): 1000 to 2490 nM
- Selectivity CB2 (human CB2 receptor): 2.64 fold
- IC50 (human CB1 receptor; [2]): 2500 to 4990 nM

SMILES: CCCCCc1cc(O)c(C/C=C(\C)CCC=C(C)C)c2c1C(=O)OC(CC)O2 (stereo not drawn) [Compound 16, 8-(3,7-dimethylocta-2,6-dien-1-yl)-2-ethyl-7-hydroxy-5-pentyl-4H-benzo[d][1,3]dioxin-4-one]
- IC50 (human CB2 receptor; [1]): 1000 to 2490 nM
- Selectivity CB2 (human CB2 receptor): 2.04 fold
- IC50 (human CB1 receptor; [2]): 2500 to 4990 nM

SMILES: CCCCCc1cc(O)c(C/C=C(\C)CCC=C(C)C)c2c1C(=O)OC(CC(C)=O)(c1ccc(OC)cc1)O2 (stereo not drawn) [Compound 17, 8-(3,7-dimethylocta-2,6-dien-1-yl)-7-hydroxy-2-(4-methoxyphenyl)-2-(2-oxopropyl)-5-pentyl-4H-benzo[d][1,3]dioxin-4-one]
- IC50 (human CB2 receptor; [1]): < 1000 nM
- Selectivity CB2 (human CB2 receptor): 5.45 fold
- IC50 (human CB1 receptor; [2]): 2500 to 4990 nM

SMILES: CCCc1cc(O)c(C/C=C(\C)CCC=C(C)C)c2c1C(=O)OCO2 [Compound 18, 8-(3,7-dimethylocta-2,6-dien-1-yl)-7-hydroxy-5-propyl-4H-benzo[d][1,3]dioxin-4-one]
- IC50 (human CB2 receptor): 1000 to 2490 nM
- Selectivity CB2 (human CB2 receptor): 3.88 fold
- IC50 (human CB1 receptor): > 5000 nM

SMILES: CCCc1cc(O)c(C/C=C(\C)CCC=C(C)C)c2c1C(=O)OC(c1ccccc1)O2 (stereo not drawn) [Compound 19, 8-(3,7-dimethylocta-2,6-dien-1-yl)-7-hydroxy-2-phenyl-5-propyl-4H-benzo[d][1,3]dioxin-4-one]
- IC50 (human CB2 receptor): 1000 to 2490 nM
- Selectivity CB2 (human CB2 receptor): 3.92 fold
- IC50 (human CB1 receptor): > 5000 nM
